{"source": "patent EP2243483A1", "about": "“Amlodipine salt compositions for topical application” (priority 2009, dated 2010)", "origin": "cited, not measured here", "key": {"[1]": {"details": "hypertensive patients"}, "[2]": {"details": "tablets"}, "[3]": {"molecular_target": "T1, 2B6 (Homo sapiens, UniProt P20813)", "T1 sequence (P20813 1-491)": "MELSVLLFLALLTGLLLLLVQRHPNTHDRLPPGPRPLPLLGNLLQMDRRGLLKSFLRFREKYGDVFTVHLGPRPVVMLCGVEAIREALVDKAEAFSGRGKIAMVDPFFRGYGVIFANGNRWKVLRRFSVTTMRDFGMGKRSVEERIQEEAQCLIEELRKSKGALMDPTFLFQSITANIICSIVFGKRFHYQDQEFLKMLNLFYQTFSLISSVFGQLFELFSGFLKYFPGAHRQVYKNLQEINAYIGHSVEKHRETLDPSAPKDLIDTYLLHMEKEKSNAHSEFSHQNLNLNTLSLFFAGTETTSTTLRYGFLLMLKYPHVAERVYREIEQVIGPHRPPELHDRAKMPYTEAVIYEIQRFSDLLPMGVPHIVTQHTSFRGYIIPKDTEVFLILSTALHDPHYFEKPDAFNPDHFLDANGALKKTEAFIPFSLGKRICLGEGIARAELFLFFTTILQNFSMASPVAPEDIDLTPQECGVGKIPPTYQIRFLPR"}, "[4]": {"system": "2C8/9"}, "[5]": {"molecular_target": "2D6 (Homo sapiens, UniProt P10635)", "sequence (P10635 whole entry)": "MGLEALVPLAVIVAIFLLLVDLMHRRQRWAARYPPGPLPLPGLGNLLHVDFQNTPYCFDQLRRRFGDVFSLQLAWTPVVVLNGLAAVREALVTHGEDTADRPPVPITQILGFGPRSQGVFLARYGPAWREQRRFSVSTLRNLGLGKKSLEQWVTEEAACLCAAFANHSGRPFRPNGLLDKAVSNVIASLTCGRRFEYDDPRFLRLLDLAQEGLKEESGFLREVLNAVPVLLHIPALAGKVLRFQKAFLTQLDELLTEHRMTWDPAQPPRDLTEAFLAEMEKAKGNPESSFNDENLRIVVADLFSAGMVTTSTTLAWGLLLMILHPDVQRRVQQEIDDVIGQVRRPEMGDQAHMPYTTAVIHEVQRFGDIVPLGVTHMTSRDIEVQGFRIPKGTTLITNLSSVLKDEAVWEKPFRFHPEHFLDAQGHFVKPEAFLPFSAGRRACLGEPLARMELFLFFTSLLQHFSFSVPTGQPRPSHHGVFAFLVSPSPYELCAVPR"}, "[6]": {"molecular_target": "3A4 (Homo sapiens, UniProt P08684)", "sequence (P08684 whole entry)": "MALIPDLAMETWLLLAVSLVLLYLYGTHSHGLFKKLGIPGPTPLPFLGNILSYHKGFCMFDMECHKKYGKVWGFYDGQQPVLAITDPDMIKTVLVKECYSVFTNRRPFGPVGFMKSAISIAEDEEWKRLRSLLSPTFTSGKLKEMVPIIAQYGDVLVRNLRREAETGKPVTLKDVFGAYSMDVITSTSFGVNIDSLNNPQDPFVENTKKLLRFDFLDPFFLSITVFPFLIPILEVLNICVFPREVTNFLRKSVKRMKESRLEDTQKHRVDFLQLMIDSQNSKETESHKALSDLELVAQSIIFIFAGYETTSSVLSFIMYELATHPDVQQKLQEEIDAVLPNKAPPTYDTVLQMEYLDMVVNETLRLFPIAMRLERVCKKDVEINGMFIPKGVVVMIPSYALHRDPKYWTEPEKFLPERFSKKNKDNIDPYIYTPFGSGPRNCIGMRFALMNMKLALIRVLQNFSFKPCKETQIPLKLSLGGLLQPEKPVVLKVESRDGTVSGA"}, "[7]": {"molecular_target": "T2, CYP 1A2 isoenzyme (Homo sapiens, UniProt P05177)", "T2 sequence (P05177 1-516)": "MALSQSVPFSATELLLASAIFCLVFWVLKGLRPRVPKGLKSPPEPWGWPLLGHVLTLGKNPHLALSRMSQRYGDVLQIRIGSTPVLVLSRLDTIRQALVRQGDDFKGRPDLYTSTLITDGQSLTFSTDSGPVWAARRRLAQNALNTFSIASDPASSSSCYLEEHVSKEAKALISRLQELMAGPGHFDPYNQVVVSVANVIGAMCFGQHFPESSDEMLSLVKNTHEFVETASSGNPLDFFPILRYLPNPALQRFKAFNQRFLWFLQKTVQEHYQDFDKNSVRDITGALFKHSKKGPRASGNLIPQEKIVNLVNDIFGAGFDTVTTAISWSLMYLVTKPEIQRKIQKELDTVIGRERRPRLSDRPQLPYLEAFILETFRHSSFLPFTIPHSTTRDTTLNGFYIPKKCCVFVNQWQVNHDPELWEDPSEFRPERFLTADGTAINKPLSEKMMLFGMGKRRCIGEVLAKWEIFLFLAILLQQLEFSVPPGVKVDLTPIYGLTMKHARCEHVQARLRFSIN"}, "[8]": {"molecular_target": "T3, 2A6 (Homo sapiens, UniProt P11509)", "T3 sequence (P11509 1-494)": "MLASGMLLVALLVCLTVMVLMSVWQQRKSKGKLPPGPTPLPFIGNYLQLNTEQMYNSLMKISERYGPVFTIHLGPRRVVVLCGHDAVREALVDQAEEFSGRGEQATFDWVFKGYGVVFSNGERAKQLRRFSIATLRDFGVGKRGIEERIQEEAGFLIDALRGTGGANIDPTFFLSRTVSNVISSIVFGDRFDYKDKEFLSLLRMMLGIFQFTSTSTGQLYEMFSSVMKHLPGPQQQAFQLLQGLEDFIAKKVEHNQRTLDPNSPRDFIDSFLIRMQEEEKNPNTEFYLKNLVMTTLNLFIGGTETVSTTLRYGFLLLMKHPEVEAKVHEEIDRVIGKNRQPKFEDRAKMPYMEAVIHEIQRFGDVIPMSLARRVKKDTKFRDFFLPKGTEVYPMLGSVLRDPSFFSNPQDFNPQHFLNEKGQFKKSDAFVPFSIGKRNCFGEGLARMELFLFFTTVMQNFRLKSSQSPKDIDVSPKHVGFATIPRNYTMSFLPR"}}, "note": "Counter-ions that a name gives are not always drawn."}
{"smiles": "CCOC(=O)C1=C(COCCN)NC(C)=C(C(=O)OC)C1c1ccccc1Cl", "note": "(stereo not shown) [amlodipine maleate]", "values": [{"measurement": "circulating drug bound to plasma protein", "setting": "[1]", "value": "Approximately 93%"}, {"measurement": "converted to inactive metabolites via hepatic metabolism", "setting": "in vivo, po", "value": "About 90%"}, {"measurement": "time of peak concentration", "setting": "in vivo, po", "value": "6 to 12", "unit": "h"}, {"measurement": "time required for therapeutic response, initially", "setting": "[2]", "value": 7, "unit": "days"}, {"measurement": "time required for therapeutic response, peak", "setting": "[2]", "value": "about 14 days"}]}
{"smiles": "CCOC(=O)C1=C(COCCN)NC(C)=C(C(=O)OC)C1c1ccccc1Cl", "note": "(stereo not shown) [amlodipine]", "values": [{"measurement": "inhibition", "setting": "[3]", "value": "weaker inhibition"}, {"measurement": "inhibition", "setting": "[4]", "value": "weaker inhibition"}, {"measurement": "inhibition", "setting": "[5]", "value": "weaker inhibition"}, {"measurement": "inhibition", "setting": "[6]", "value": "weaker inhibition"}, {"measurement": "parent compound excreted in the urine", "setting": "in vivo, po", "value": 10, "unit": "%"}, {"measurement": "metabolites excreted in the urine", "setting": "urine, oral", "value": 60, "unit": "%"}, {"measurement": "inhibition", "setting": "[7]", "value": "moderately inhibited"}, {"measurement": "inhibition", "setting": "[8]", "value": "weaker inhibition"}]}
